Data published in a melting point compilation (Tetko et al.; mined from patent text by program, amines drawn as free bases though some values may be those of a salt).

| Structure (SMILES) | melting point [°C] |
| --- | --- |
| N#Cc1cnn2c1N(C(=O)CN1CCN(Cc3ccccc3C(F)(F)F)CC1)CC=C2c1cccc(C(F)(F)F)c1 | 169 to 171 |
| Cc1cccc(C)c1NC(=O)Nc1sc2ccc(Cl)cc2c1-c1ccccc1Cl | 203 to 204 |
| ClCc1cccc2c(-c3ccc(Br)cc3)nccc12 | 116 to 118 |
| CN(C(=O)c1ccccc1NC(=O)CN1C(=O)c2ccccc2C1=O)c1ccccc1 | 138 |
| CCCCNc1nc2ccccc2c2c1ncn2C | 98 to 100 |
| O=C1Nc2ccccc2CCC1Oc1ccc([N+](=O)[O-])c(OCc2ccccc2)c1 (stereo not given) | 188 to 189 |
| CN1C(=O)c2ccccc2CC12c1ccccc1C(=O)N2C (stereo not given) | 202 to 203 |
| Cc1ccc(S(=O)(=O)Nc2ccc(/C(CN3CCN(C)CC3)=N/O)cc2)cc1 | 192 to 193 |
| CCCCCCCCc1ccc(CCC(CCOC(C)=O)(CCOC(C)=O)NC(C)=O)cc1 | 57 to 59 |
| Cc1ccc2c(=O)nc(-c3ccccn3)sc2c1 | 225 |
| O=[N+]([O-])c1ccc(C2(Cn3cncn3)OCCO2)cc1 | 160 |
| CSc1nc(O)c(C(N)=O)c(O)n1 | > 360 |
| O=C1NC(N2CCCCCC2)=N/C1=C\c1c[nH]c2ncc(-c3ccccc3)cc12 | 302 |
| O=S(=O)(Cc1ccccc1)C1CCN(Cc2ccccc2)CC1 | 120 to 121 |
| COc1ccc2cnc(=O)[nH]c2c1C(C)C | 188 to 190 |
| COc1ccc2[nH]nc(N3CCN(C)CC3)c2c1 | 158 to 160 |
| COc1nc(C)c(C(C)O)cc1NC(=O)N1CCN(c2cccc(C)c2C)CC1 (stereo not given) | 100 to 102 |
| CC(=O)SCCc1cccc(N)n1 | 55 to 59 |
| COc1cc(C(C)C)nn1C | 114 to 115 |
| CC(C)(C)c1cc(OCc2ccccc2-c2nnn[nH]2)cc(C(C)(C)C)c1O | 149 to 150 |
| N#Cc1ccc(C2CCCC(=O)N2c2ccccc2)cc1 (stereo not given) | 120 |
| COC(=O)c1c(Cl)cc(Cl)cc1NC(=O)CSc1ccc(NC(=O)Cc2cccc(Br)c2)cc1 | 177 to 180 |
| CCOc1cc(-c2cc(C(F)(F)F)n3ncc(C(=O)Nc4cccc(S(N)(=O)=O)c4)c3n2)ccc1C(F)(F)F | 253 |
| CC(C)(C)OC(=O)COc1ccc(/C=C/C(=O)C(F)(F)F)cc1 | 112 to 113 |

| Structure (SMILES) | melting point [°C] |
| --- | --- |
| Clc1cc(Cl)c(CBr)c(Cl)c1 | 51 to 52 |
| CCOC(=O)N1CCc2nc3ccccc3c(CO)c2CC1 | 158 |
| CCN(CCO)C(=O)c1ccc(C(=O)N2CCN(c3ncccc3NC(C)C)CC2)cc1 | 115 |
| CCOC(=O)Nc1ccc(OC(=O)NC)cc1C | 153 to 155 |
| COC(=O)c1cccc2[nH]c(=O)n(Cc3ccc(-c4ccccc4C#N)cc3)c12 | 250 to 253 |
| CC(O)(C1=CCN(CCCC(=O)c2ccc(F)cc2)CC1)c1ccc(F)cc1 (stereo not given) | 95 |
| COc1ccc2oc(S(=O)(=O)c3ccc(=O)[nH]n3)cc2c1 | 222 to 223 |
| C/C(=N\OCCOc1ccc(C(=O)O)c(Cl)c1)c1ccc(C(C)(C)C)cc1 | 143 to 144 |
| Cc1ccc(Oc2ccccc2-n2cc(C(=O)O)nn2)c(O)c1 | 168 to 169 |
| COc1cc(NC(=O)OC(C)(C)C)c([N+](=O)[O-])cc1-c1ccc(F)cc1 | 250 |
| O=c1c2c(oc3ncccc13)-c1ccccc1CCC2 | 186 to 190 |
| CC(=O)Nc1nc(CN2CCN(C(c3ccccc3)c3ccccc3)CC2)c(Cl)s1 | 227 to 230 |
| CCOC(=O)c1nc2ccc(OC)cc2n(C)c1=O | 166 |
| CN(C)c1ccc(C2CCCN2S(=O)(=O)c2ccc(Cl)cc2)cc1F (racemic) | 99 |
| CCCCOc1cc(CCC(=O)O)ccc1CCCc1ccc(OCC)c(OC)c1 | 66 |
| CS(=O)(=O)c1ccc(-c2cc(CO[N+](=O)[O-])nn2C2CCCCCCC2)cc1 | 110 to 111 |
| CCC12CCC3C4CCC(=O)C=C4CCC3C1CCC2OC(O)C(Cl)(Cl)Cl (stereo not given) | 175 to 176 |
| Cc1ccccc1C=Nc1c2c(nc3ccccc13)CCCC2 | 160 to 162 |
| Cc1nc(-c2ccccc2)nc(N2CCCC2C(=O)N2CC(C)NC(C)C2)c1C (stereo not given) | 160 to 162 |
| O=C(c1ccc(Cl)cc1)N1CCc2cc(S(=O)(=O)N3CC(c4ccccc4)NC3=O)ccc21 (stereo not given) | 235 |
| c1ccc(Cn2nnnc2-c2ccccc2)cc1 | 54 to 67 |
| CC(C)(C)OC(=O)N1CCC[C@@H](OC(=O)c2ccc(C(=O)c3ccccc3)cc2)[C@H](NC(=O)c2ccc(OC(C)(C)C)cc2)C1 | 145 to 148 |
| Cc1ccccc1-c1c(C(C)n2cnc3c(N)ncnc32)oc2ccccc2c1=O (stereo not given) | 202 to 205 |
| c1ccc2c(c1)nc1n2CCC1 | 86 to 88 |

| Structure (SMILES) | melting point [°C] |
| --- | --- |
| N#Cc1ccccc1C(F)(F)C(F)(F)c1ccc(F)cc1 | 90 to 93 |
| CCOc1cc(C2=NN(c3ccccc3)C(=O)[C@H]3CC=CC[C@@H]23)ccc1OC (relative stereo) | 97 to 99 |
| COC(=O)c1cnn(-c2cc(Cl)cc(Cl)c2)c1C(N)=O | 220 to 222 |
| Cc1nc(C)c(C(=O)c2ccoc2)o1 | 73.5 to 74.5 |
| CC(=O)N1CCN(CCCOc2ccc(N3CCN(c4ccc5nnc(C(F)(F)F)n5n4)CC3)cc2)CC1 | 162 |
| O=C(NCc1ccccn1)Nc1cc(N2CC(c3ccccc3F)CC2=O)ccn1 (stereo not given) | 173 to 174 |
| CC(OCn1cc(Cl)cnc1=O)c1ccccc1 (stereo not given) | 139 |
| CC1(C)SC(=S)N(Cc2ccco2)C(=O)C1NC(=O)c1ccccc1 (stereo not given) | 168 to 169 |
| CCN1N=C(c2ccc(F)cc2)c2cc(Cl)c(Cl)cc2CS1(=O)=O | 218 to 221 |
| CC(C)(C)OC(=O)NC1CCCCC1NC(=O)c1ccccn1 (stereo not given) | 78 to 79 |
| c1ccc2c(c1)CCN(Cc1n[nH]c3ccccc13)C2 | 151 to 152 |
| C#CC[C@H](c1nc2cc(Cl)ccc2c(=O)n1Nc1ccccc1)N(CCCN)C(=O)c1ccc(C)c(F)c1F | 175 to 180 |
| Cc1cn(C(C)C(=O)N(C)C)nc1-c1ccc(Cl)cc1 (stereo not given) | 99.5 to 101 |
| CN(C)CCCc1c[nH]c(-c2ccc(F)cc2)c1-c1ccncc1 | 177 to 179 |
| COC1CN(C(C)CC(C(=O)N(C)C)(c2ccccc2)c2ccccc2)CCC1NC(=O)c1cccc(C(F)(F)F)c1 (stereo not given) | 198 |
| NC(=O)Cc1ccc(C2CCCCC2)cc1 | 167 to 168 |
| O=C(OCC(O)CO)c1cc(F)ccc1Nc1ccnc2cc(C(F)(F)F)ccc12 (stereo not given) | 167 to 168 |
| CSC(=NC(=O)OC(C)(C)C)NNC(=O)NC(=O)OCc1ccccc1 | 120 to 123 |
| Cc1nc2cc(Cn3ccnc3)ccc2n1Cc1cccnc1 | 174 |
| COc1ccc(CCNC(=O)CN)cc1OC1CCCC1 | 57 to 60 |
| COc1cc(C=O)c(C=O)cc1OCCCl | 113 to 114 |
| N#Cc1ccc(N2Cc3ccccc3C2)c2ccccc12 | 156 to 158 |

Now from value to compound:

| melting point [°C] | Structure (SMILES) |
| --- | --- |
| 90 to 92 | CC(C)(C)NCC(O)COc1ccc(OCC2CC2)cc1 (stereo not given) |
| 161 to 163 | C=CCn1c(=O)n(S(=O)(=O)c2ccc(Cl)cc2)c(=O)c2ccc(Cl)cc21 |
| 250 to 252 | Cn1c(CNC(=O)c2ccc3ccccc3c2)nc(-c2ccncn2)cc1=O |
| 191 to 193 | O=C(O)C1=Cc2c(ccc(Cl)c2-c2ccco2)OC1C(F)(F)F (stereo not given) |
| 203 to 204 | CC1CN(c2ccc(C(=O)C(F)(F)F)cc2)N=C1NC(=O)C(F)(F)F (stereo not given) |
| 138 to 139 | O=C(CO[C@H]1NC(=O)[C@@H]1NC(=O)c1ccccc1)CC(=O)OCc1ccc([N+](=O)[O-])cc1 |
| > 210 | Nc1nccc(-c2c[nH]c3nccc(OC4CCCCC4)c23)n1 |
| > 250 | O=S(=O)(c1cccs1)N1CCc2[nH]c3c(cnc4cc(Cl)ccc43)c2C1 |
| 140 to 141 | CC(=O)Nc1ccc(Sc2ccc(Cl)cc2)cc1 |
| 160 to 161 | COc1ccc(C(=O)NCCCCCCCNC(=O)c2ccc(OC)c(OC)c2)cc1OC |
| 118 to 121 | c1ccc(-c2nc3cnccc3o2)cc1 |
| 69 to 71 | Cc1cc(C)cc(C(=O)N2CCN(C(=O)CNC3CN4CC3CC4Cc3ccccc3)C(c3ccc(Cl)c(Cl)c3)C2)c1 (stereo not given) |
| 217 to 218 | CCC(C)N(C(=O)c1ccccc1C(N)=O)c1ccc(Cn2nnn(-c3ccc(C(F)(F)F)cc3)c2=O)cc1C (stereo not given) |
| 82 to 85 | Cc1ccc2cccc(OCc3c(Cl)ccc(C4OCCO4)c3Cl)c2n1 |
| 125 | O=CNCC1CCN(C(c2ccccc2)c2ccccc2)CC1 |
| 116 to 117 | Cc1ccc(Cn2ncnc2C(C)NS(=O)(=O)c2ccc(Cl)s2)cc1 (stereo not given) |
| 179 | CCCCCCCCCCCCCCCCCCCC(=O)Nc1ccc(NC(=O)NS(=O)(=O)c2ccc3ccccc3c2)cc1 |
| 101 to 102 | Cc1cc([N+](=O)[O-])ccc1N=C1C2CC3CC(C2)CC(C3)N1CC(C)C |
| 62.5 to 63.5 | CCOC(=O)CSc1nnsc1-c1ccc(C(C)(C)C)cc1 |
| 162 to 164 | CCc1[nH]n(C2CCCC2)c2nc(Cc3ccncc3)nc(=O)c1-2 |
| 160 to 164 | Cc1cc(-c2ccccc2)n2nc(N3CCN(Cc4ccccc4)CC3)c(C#N)c2n1 |
| 152 to 153 | CC(C)(N)CNS(=O)(=O)c1ccccc1 |
| 93 to 100 | CC(=O)C(=CN(C)C)c1ccc(N2CCC(c3ccccc3)CC2)cc1 |
| 182 to 183 | CCN(CC)c1nsc(NC(=O)NC)c1C#N |
| 160 to 162 | CC(C)(C)OC(=O)N1C=CN(CC#N)C(=O)[C@@H]1Cc1ccccc1 |
| 120 to 122 | COc1ccc(-c2nc(CNC(C)(C)C)nc3cc(OC)c(OC)cc23)cc1OC |
| 156 to 159 | Nc1cnc(Oc2cnc3ccccc3c2)c(Cl)c1 |
| 59 to 62 | COC(=O)c1cc(N2C(=O)C3C4CC4CN3C2=O)c(F)cc1Cl (stereo not given) |
| 184 to 185 | CCn1cc(S(=O)(=O)NC(=O)c2cn3cc(C(F)(F)F)cc(Cl)c3n2)c(Cl)n1 |
| 147 to 148 | O=C1CCCCCN1CNC(=S)NCN1CCCC1=O |
